Data as given in patent US8143025B2, “Antibodies against vascular endothelial growth factor receptor-1” (ImClone LLC, priority 2004, dated 2012).
“Also recorded” adds a separate entry of the source.

How the values were obtained:
[1] = tested on: ERK1/2 downstream signaling; test: ERK1/2 activation Western blot, PAE-VEGFR-I cells; format: cell-based; details: PAE-VEGFR-I transfectant cells, FIGS. 12-14
Experimental: Autophosphorylation of the VEGFR-I induced by its ligands and resulting activation of a classical MAPK, extracellular signal-regulated protein kinases 1Z2 (ERK1Z2) and the PBK/Atk downstrean signaling pathways mediate cellular biological responses such as proliferation, motility, survival, and differentiation. The ability of an anti-VEGFR-1 antibody to inhibit phosphorylation of VEGFR-I and activation of ERK1 Z2 and the Akt kinases downstream signaling were determined by using the PAE-VEGFR-I transfectant and BT474 breast carcinoma cells.
PAE-VEGFR-I and BT474 cells were seeded at a density of 5×10^5Zwell in […] plates and cultured in serum-free medium for 18-48 hours. After replacing the culture medium, the cells were treated at 37° C. with anti-VEGFR-I antibody clones 6F9, 15F1 1, and 18F1 or isotype control for 1 hour and then incubated with 50 ng/ml of VEGF or 100 ng/ml of PlGF for 10 minutes. […] Western blot of phosphorylated VEGFR-I was detected using […] antibody (PY-20, Santa Cruz Biotechnology, Santa Cruz, Calif.). Proteins were detected using and […] chemiluminescence system (ECL)(Amersham Pharmacia Biotech, Piscataway, N.J.), and quantified by densitometry using NIH Image (National Institute of Mental Health, Bethesda, Md.). […]

[2] = biological target: T1, VEGFR-I on PAE-VEGFR-I expressing cells (Homo sapiens, UniProt P17948); test: Surface VEGFR-I blocking assay (125I-VEGF); format: binding; details: porcine aorta endothelial cells, FIG. 9
T1 construct: host or cells: porcine aorta endothelial (PAE) cells
Experimental: The binding of ^125I-VEGF to VEGFR-I on cell surface was performed using PAE-VEGFR-I expressing cells. […] Confluent cells were incubated in serum- and growth supplement-free Dulbecco's Modified Eagle Medium (DMEM)ZF-12 medium (Invitrogen, Carlsbad, Calif.) for 24 hours. Cells were rinsed once with ice-cold DMEMZF-12 medium containing 0.025 M HEPES and 1 mgZml bovine serum albumin (BSA). A serial dilution of anti-VEGFR-I antibody 18F1 or cold VEGF at the concentration of a 200-fold molar excess of labeled VEGF was added to each well in the plate and incubated at 4° C. for 1 hour. After wash, ^125I-VEGF was added at the concentration of 2 ngZml and was incubated at 4° C. for 2 hours on a platform shaker. The cells were washed three times with PBS containing 1 mgZml BSA and 0.25 mM CaCl2, and were incubated for 5 minutes in the presence of 1% Triton X-100, 1 mgZml BSA, and 0.16% NaN3 to remove bound VEGF. The soluble content of each well was counted in a gamma counter. The assays were performed in triplicate in at least three independent experiments and the data were analyzed using Prism GraphPad software 3.03.

DLD-I xenograft = test: DLD-I colon cancer xenograft; format: in vivo, mouse; details: monotherapy, FIG. 26B
Experimental: Female athymic nu/nu mice, 6-8 weeks of age, were injected subcutaneously on the lateral dorsal surface with 0.4 mL volume of a suspension containing a human tumor cell line in media, diluted 1:1 with MATRIGEL™ (BD Biosciences). The cell lines used in xenograft models, with the cell doses indicated in parenthesis (10^6 cells/mouse), were: human colon carcinoma cell lines DLD-I (5), GEO (5) and HT-29 (5); human breast carcinoma cell lines DU4475 (2), MDA-MB-231 (5), MDA-MB-435 (5), and BT474 (5). When tumors reached approximately 200-300 mm^3, mice were randomized by tumor size and divided into treatment groups. Tumor growth was evaluated approximately twice weekly, with tumor volume calculated as π/6* (Length*Width^2), where Length=longest diameter and Width=diameter perpendicular to Length. Tumor dimensions were measured with calipers. T/C % was calculated as 100*(Final Treatment Tumor Volume/Initial Treatment Tumor Volume)/(Final Control Tumor Volume/Initial Control Tumor Volume).
18F1 was diluted in 0.9% USP saline (Braun) or phosphate buffered saline (PBS) and administered intraperitoneally in a volume of 0.5 mL per mouse. The effect of treatment on tumor growth was analyzed using repeated measures analysis of variance (RM ANOVA), p<0.05 was considered significant.

MDA-MB-231 xenografts = test: Immunohistochemistry and TUNEL of MDA-MB-231 xenografts; format: in vivo, mouse
Experimental: Paraffin-embedded MDA-MB-231 xenografts were evaluated immunohistochemically for markers of tumor cell proliferation, survival, and apoptosis. Markers of proliferation and survival included Ki-67 (rabbit pAb; Lab Vision Corporation, Fremont, Calif.), phospho-specific p44/42 MAPK (Thr202/Tyr204) (rabbit pAb; Cell Signaling Technology) and phospho-specific Akt (Ser473) (rabbit pAb; Cell Signaling Technology). The EnVision+ System for rabbit antibodies (DAKO Cytomation, Carpenteria, Calif.) was used with 3,3′ diaminobenzidine (DAB) as the chromagen, per kit instructions. After brief counterstaining in Mayer's hematoxylin all sections were dehydrated, cleared and coverslipped using a permanent mounting medium. Tumor apoptosis was assessed by TUNEL assay using ApopTag® Peroxidase In Situ Apoptosis Detection Kit (Chemicon, Temecula, Calif.) per kit instructions. Stained sections were coverslipped with Gelmount (Biomeda, Foster City, Calif.). Positive immunostaining and TUNEL positive […] were analyzed and imaged using an Axioskop light microscope with an Axiocam digital camera (Carl Zeiss, Germany).

[3] = after 1 week, 0.5 mg/dose M-W-F
[4] = after 14 days, 20 mg/kg 2x/week

T1 sequence (P17948 27-1338): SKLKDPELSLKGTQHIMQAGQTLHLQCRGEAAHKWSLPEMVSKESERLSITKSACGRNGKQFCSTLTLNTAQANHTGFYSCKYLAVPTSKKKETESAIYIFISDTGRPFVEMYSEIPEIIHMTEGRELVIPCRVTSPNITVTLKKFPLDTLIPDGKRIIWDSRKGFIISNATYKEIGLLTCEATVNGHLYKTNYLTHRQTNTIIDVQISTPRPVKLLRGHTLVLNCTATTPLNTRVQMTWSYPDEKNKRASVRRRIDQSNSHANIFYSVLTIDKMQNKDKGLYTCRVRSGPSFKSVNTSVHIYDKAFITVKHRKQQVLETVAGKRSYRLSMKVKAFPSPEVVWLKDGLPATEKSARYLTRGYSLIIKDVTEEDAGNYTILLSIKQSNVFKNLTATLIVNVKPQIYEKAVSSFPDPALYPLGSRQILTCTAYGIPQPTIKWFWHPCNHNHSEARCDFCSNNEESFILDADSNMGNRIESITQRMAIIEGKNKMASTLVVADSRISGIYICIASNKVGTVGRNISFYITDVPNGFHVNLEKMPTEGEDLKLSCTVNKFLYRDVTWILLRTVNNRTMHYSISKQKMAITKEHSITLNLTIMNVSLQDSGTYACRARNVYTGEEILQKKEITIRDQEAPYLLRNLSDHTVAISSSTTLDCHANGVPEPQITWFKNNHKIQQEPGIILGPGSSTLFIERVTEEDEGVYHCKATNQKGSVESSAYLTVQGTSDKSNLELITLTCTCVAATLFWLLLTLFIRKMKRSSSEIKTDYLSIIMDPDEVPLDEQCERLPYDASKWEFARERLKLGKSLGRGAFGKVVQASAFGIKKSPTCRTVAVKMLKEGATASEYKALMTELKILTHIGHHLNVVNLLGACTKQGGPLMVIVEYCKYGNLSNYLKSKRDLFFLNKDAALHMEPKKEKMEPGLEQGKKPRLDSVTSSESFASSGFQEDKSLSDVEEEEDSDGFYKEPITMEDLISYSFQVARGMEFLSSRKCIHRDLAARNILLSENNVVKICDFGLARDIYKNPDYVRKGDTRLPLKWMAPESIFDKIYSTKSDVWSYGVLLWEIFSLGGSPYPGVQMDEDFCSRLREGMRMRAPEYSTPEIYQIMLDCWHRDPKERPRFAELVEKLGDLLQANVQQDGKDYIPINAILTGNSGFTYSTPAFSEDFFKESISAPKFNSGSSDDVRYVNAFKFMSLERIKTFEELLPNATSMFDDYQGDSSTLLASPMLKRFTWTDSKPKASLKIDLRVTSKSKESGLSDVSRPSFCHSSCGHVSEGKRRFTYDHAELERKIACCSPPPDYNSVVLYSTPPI

blocking of 125I-VEGF binding to native VEGFR-I [2]: strong blocking activity
Substance: 18F1: human anti-VEGFR-1 monoclonal antibody clone; VL SEQ ID NO: 16, VH SEQ ID NO: 20 [Clone 18F1]
PlGF and VEGF induced activation of ERK1/2 downstream signaling [1]: dramatically inhibited; also recorded: inhibition
antitumor effect against DLD-I colon cancer xenografts (DLD-I xenograft): significant antitumor effect
Akt phosphorylation (MDA-MB-231 xenografts; [3]): significant decrease
apoptosis as measured by TUNEL positive events (MDA-MB-231 xenografts; [3]): increase
activation of MAPK (MDA-MB-231 xenografts; [4]): marked decrease
marker for proliferating cells (Ki-67) (MDA-MB-231 xenografts; [4]): significantly reduced
